According to US12655142B2 (Merck Patent GmbH, priority 2019, dated 2026):

How the values were obtained:
c-Kit(V654A) = target: T1, c-Kit(V654A) (Homo sapiens, UniProt P10721, V654A); test: c-Kit(V654A) assay (33P-ATP filter binding kinase assay); type: biochemical; details: recombinant human c-Kit aa 544-end V654A, ATP 200 μM
T1 construct: recombinant human c-Kit, amino acids 544-end containing the V654A mutation; GST (N)
Protocol: c-Kit(V654A) (N-terminal GST-tagged, recombinant human c-Kit, amino acids 544-end containing the V654A mutation) is incubated with 8 mM MOPS pH 7.0, 0.2 mM EDTA, 250 μM GGMEDIYEFMGGKKK, 10 mM MgAcetate and [gamma-33P-ATP] (specific activity approx. 500 cpm/pmol, concentration 200 μM). The reaction is initiated by the addition of the MgATP mix. After incubation for 40 minutes at room temperature, the reaction is stopped by the addition of 3% phosphoric acid solution. 10 μL of the reaction is then spotted onto a P30 filtermat and washed three times for 5 minutes in 75 mM phosphoric acid and once in methanol prior to drying and scintillation counting.

[1] = target: T2, GIST430/654 cell line expressing mutated constitutively active cKIT receptor tyrosine kinase (Δ560-576 deletion and V654A point mutation) (Homo sapiens, UniProt P10721, DEL560-576/V654A); test: Cellular cKIT autophosphorylation (phospho-Y307-cKIT, Luminex bead assay) in GIST430/654 cells; type: cell-based; details: compounds 45 min, read-out: GIST 430/654 IC50
T2 construct: endogenous in cells; host or cells: GIST430/654 cells
Protocol: Assay Principle for Cellular Testing of cKIT Mutant Inhibitors
The GIST430 cell line expressing constitutive active cKIT receptor tyrosine kinase (Δ560-576 deletion) and the Imatinib resistant GIST430/654 cell line expressing mutated constitutively active cKIT receptor tyrosine kinase (Δ560-576 deletion and V654A point mutation) were employed for assessing cellular potency of compounds. Cellular activity of mutant cKIT was determined by the degree of cKIT autophosphorylation at tyrosine 307 using a Luminex-based bead assay. GIST430 cells were plated with 22,000 cells per well of a 96-well plate in 100 μl medium (85% IMDM/15% FCS) and GIST430/654 cells were plated with 25,000 cells per well of a 96-well plate in 100 μl medium (85% IMDM/15% FCS supplemented with 100 nM Imatinib). At the following day compounds were added in a serial dilution for 45 min. Then, cells were lysed with 90 μl lysis buffer (20 mM Hepes pH 7.5, 200 mM NaCl, 1.5 mM MgCl2×6H2O, 0.4 mM EDTA, 1% Triton-X-100, 1% Phosphatase-Inhibitor II, 20 mM β-Glycerolphosphat, 0.1% Protease-Inhibitor Cocktail III, 0.01% Benzonase) and lysates were cleared by centrifugation through a 96-well filter plate (0.65 μm). Samples were incubated with Luminex-beads which were coupled with an anti-total cKIT antibody overnight at 4° C. under gentle agitation. For detection of phospho-Y307-cKIT a phosphospecific antibody and a species-specific PE-labeled secondary antibody were added. The amount of phospho-Y307-cKIT was determined in a Luminex 200 instrument measuring 100 events per well within 60 seconds.
Counts from samples treated with compounds were calculated as percent of control from solvent treated (0.3% DMSO) samples. Dose-response curves were fitted and IC50 values were determined using Genedata Screener software.

T2 sequence (P10721 with tags, fused parts or gaps DEL560-576/V654A): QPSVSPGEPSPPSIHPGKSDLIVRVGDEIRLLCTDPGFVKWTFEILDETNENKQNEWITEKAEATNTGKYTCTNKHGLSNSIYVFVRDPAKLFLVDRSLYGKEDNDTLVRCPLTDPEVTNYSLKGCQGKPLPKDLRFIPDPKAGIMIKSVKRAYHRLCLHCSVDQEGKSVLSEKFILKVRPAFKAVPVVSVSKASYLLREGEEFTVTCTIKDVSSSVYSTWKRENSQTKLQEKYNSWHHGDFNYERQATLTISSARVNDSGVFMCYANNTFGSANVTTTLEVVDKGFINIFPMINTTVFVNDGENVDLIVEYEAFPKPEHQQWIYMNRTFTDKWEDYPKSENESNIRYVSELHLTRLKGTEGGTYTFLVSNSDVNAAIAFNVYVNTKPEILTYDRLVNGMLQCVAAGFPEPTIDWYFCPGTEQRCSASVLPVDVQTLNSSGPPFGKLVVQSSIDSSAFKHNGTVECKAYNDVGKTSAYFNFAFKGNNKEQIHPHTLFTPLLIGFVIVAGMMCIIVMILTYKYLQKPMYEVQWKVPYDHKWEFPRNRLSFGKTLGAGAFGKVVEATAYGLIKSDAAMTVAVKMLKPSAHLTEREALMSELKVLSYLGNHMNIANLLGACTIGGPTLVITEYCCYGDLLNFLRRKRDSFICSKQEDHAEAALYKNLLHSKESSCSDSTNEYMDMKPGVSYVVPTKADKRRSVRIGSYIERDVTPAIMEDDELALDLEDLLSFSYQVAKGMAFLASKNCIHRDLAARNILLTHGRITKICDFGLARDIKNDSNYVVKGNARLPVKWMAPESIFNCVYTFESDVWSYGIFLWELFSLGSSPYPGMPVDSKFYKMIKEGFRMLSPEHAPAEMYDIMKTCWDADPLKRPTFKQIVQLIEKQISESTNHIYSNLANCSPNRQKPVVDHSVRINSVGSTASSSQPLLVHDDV
T1 sequence (P10721 544-976 V654A): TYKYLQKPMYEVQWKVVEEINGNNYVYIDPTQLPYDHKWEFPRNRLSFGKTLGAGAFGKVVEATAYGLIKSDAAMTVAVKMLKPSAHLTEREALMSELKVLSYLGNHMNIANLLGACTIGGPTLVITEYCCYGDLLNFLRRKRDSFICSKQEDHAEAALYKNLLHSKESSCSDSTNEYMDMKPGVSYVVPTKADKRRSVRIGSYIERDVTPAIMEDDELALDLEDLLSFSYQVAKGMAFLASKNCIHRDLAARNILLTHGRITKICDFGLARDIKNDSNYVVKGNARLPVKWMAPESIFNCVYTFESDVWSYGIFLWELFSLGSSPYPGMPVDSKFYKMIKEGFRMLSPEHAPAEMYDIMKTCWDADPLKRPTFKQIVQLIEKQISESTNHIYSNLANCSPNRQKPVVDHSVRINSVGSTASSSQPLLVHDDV

Row | Structure (SMILES) | IC50 (c-Kit(V654A)) | IC50 [1]
1 | COc1ccn2c(-c3cc(NCc4ccc(-c5cn(C)nn5)cc4)ncn3)cnc2c1 [A31, [6-(7-methoxy-imidazo[1,2-a]pyridin-3-yl)-pyrimidin-4-yl]-[4-(1-methyl-1H-[1,2,3]triazol-4-yl)-benzyl]-amine] | 49 nM | 810 nM
2 | COc1ccn2c(-c3cc(NCc4ccc(-c5cnn(C6COC6)c5)cc4)ncn3)cnc2c1 [A33, 6-{7-methoxyimidazo[1,2-a]pyridin-3-yl}-N-({4-[1-(oxetan-3-yl)-1H-pyrazol-4-yl]phenyl}methyl)pyrimidin-4-amine] | 16 nM | 120 nM
3 | COc1ccn2c(-c3cc(NCc4ccc(-c5nnn(C)n5)cc4)ncn3)cnc2c1 [A37, 6-{7-methoxyimidazo[1,2-a]pyridin-3-yl}-N-{[4-(2-methyl-2H-1,2,3,4-tetrazol-5-yl)phenyl]methyl}pyrimidin-4-amine] | 15 nM | 220 nM
4 | COc1ccn2c(-c3cc(NCc4ccc(-c5cncn5C)cc4)ncn3)cnc2c1 [A39, 6-{7-methoxyimidazo[1,2-a]pyridin-3-yl}-N-{[4-(1-methyl-1H-imidazol-5-yl)phenyl]methyl}pyrimidin-4-amine] | 27 nM | 640 nM
5 | COc1ccn2c(-c3cc(NCc4ccc(-c5ccc(C)nn5)cc4)ncn3)cnc2c1 [A40, 6-{7-methoxyimidazo[1,2-a]pyridin-3-yl}-N-{[4-(6-methylpyridazin-3-yl)phenyl]methyl}pyrimidin-4-amine] | 36 nM | 1100 nM
6 | COc1ccn2c(-c3cc(NCc4ccc(-c5cnc(C)nc5)cc4)ncn3)cnc2c1 [A41, 6-{7-methoxyimidazo[1,2-a]pyridin-3-yl}-N-{[4-(2-methylpyrimidin-5-yl)phenyl]methyl}pyrimidin-4-amine] | 46 nM | 1600 nM
7 | COc1ccn2c(-c3cc(NCc4ccc(-c5nc(C)no5)cc4)ncn3)cnc2c1 [A47, 6-{7-methoxyimidazo[1,2-a]pyridin-3-yl}-N-{[4-(3-methyl-1,2,4-oxadiazol-5-yl)phenyl]methyl}pyrimidin-4-amine] | 10 nM | 190 nM
8 | COc1ccn2c(-c3cc(NCc4ccc(-c5cnn(C6CC6)c5)cc4)ncn3)cnc2c1 [A49, [4-(1-cyclopropyl-1H-pyrazol-4-yl)-benzyl]-[6-(7-methoxy-imidazo[1,2-a]pyridin-3-yl)-pyrimidin-4-yl]-amine] | 7.3 nM | 89 nM
9 | Cn1cc(-c2ccc(CNc3cc(-c4cnc5cc(OC6CCOCC6)ccn45)ncn3)cc2)cn1 [A55, [4-(1-methyl-1H-pyrazol-4-yl)-benzyl]-{6-[7-(tetrahydro-pyran-4-yloxy)-imidazo[1,2-a]pyridin-3-yl]-pyrimidin-4-yl}-amine] | 22 nM | 650 nM
10 | Cc1ccn2c(-c3cc(NCc4ccc(-c5cnn(C)c5)cc4)ncn3)cnc2c1 [A66, [6-(7-methyl-imidazo[1,2-a]pyridin-3-yl)-pyrimidin-4-yl]-[4-(1-methyl-1H-pyrazol-4-yl)-benzyl]-amine] | 7.8 nM | 190 nM
11 | COc1cc2ncc(-c3cc(NCc4ccc(-c5cnn(C)c5)cc4)ncn3)n2cc1F [A69, [6-(6-fluoro-7-methoxy-imidazo[1,2-a]pyridin-3-yl)-pyrimidin-4-yl]-[4-(1-methyl-1H-pyrazol-4-yl)-benzyl]-amine] | 13 nM | 240 nM
12 | Cn1cc(-c2ccc(CNc3cc(-c4cnc5cc(OCc6ccccc6)ccn45)ncn3)cc2)cn1 [A72, 6-[7-(benzyloxy)imidazo[1,2-a]pyridin-3-yl]-N-{[4-(1-methyl-1H-pyrazol-4-yl)phenyl]methyl}pyrimidin-4-amine] | 72 nM | 540 nM

Further compounds by falling IC50 (c-Kit(V654A)), results first:

Row | IC50 (c-Kit(V654A)) | IC50 [1] | Structure (SMILES)
13 | 71 nM | 890 nM | COc1ccn2c(-c3cc(NCc4ccc(-c5cn(C)nc5N)cc4)ncn3)cnc2c1 [A35, [4-(3-amino-1-methyl-1H-pyrazol-4-yl)-benzyl]-[6-(7-methoxy-imidazo[1,2-a]pyridin-3-yl)-pyrimidin-4-yl]-amine]
14 | 55 nM | 710 nM | COc1ccn2c(-c3cc(NCc4ccc(N5CC6CCC(C5)O6)cc4)ncn3)cnc2c1 [A38, [6-(7-methoxy-imidazo[1,2-a]pyridin-3-yl)-pyrimidin-4-yl]-[4-(8-oxa-3-aza-bicyclo[3.2.1]oct-3-yl)-benzyl]-amine]
15 | 52 nM | 740 nM | COc1ccn2c(-c3cc(NCc4ccc(-c5nccc(OC)n5)cc4)ncn3)cnc2c1 [A34, 6-{7-methoxyimidazo[1,2-a]pyridin-3-yl}-N-{[4-(4-methoxypyrimidin-2-yl)phenyl]methyl}pyrimidin-4-amine]
16 | 27 nM | 180 nM | COc1ccn2c(-c3cc(NCc4ccc(-c5cnn(CCO)c5)cc4)ncn3)cnc2c1 [A30, 2-[4-(4-{[6-(7-methoxy-imidazo[1,2-a]pyridin-3-yl)-pyrimidin-4-ylamino]-methyl}-phenyl)-pyrazol-1-yl]-ethanol]
17 | 27 nM | 510 nM | COc1ccn2c(-c3cc(NCc4ccc(-c5cnn(C)n5)cn4)ncn3)cnc2c1 [A44, [6-(7-methoxy-imidazo[1,2-a]pyridin-3-yl)-pyrimidin-4-yl]-[5-(2-methyl-2H-[1,2,3]triazol-4-yl)-pyridin-2-ylmethyl]-amine]
18 | 25 nM | 470 nM | COc1ccn2c(-c3cc(NCc4ccc(-c5cnc(C)o5)cc4)ncn3)cnc2c1 [A48, [6-(7-methoxy-imidazo[1,2-a]pyridin-3-yl)-pyrimidin-4-yl]-[4-(2-methyl-oxazol-5-yl)-benzyl]-amine]
19 | 25 nM | 490 nM | COc1ccn2c(-c3cc(NCc4ccc(-c5cn(C)nc5OC)cc4)ncn3)cnc2c1 [A50, N-{[4-(3-methoxy-1-methyl-1H-pyrazol-4-yl)phenyl]methyl}-6-{7-methoxyimidazo[1,2-a]pyridin-3-yl}pyrimidin-4-amine]
20 | 21 nM | 230 nM | c1cn(-c2ccc(CNc3cc(-c4cnc5cc(OCCN6CCCC6)ccn45)ncn3)cc2)nn1 [A70, {6-[7-(2-pyrrolidin-1-yl-ethoxy)-imidazo[1,2-a]pyridin-3-yl]-pyrimidin-4-yl}-(4-[1,2,3]triazol-1-yl-benzyl)-amine]
21 | 19 nM | 150 nM | Cn1cc(-c2ccc(CNc3cc(-c4cnc5cc(OCC6CC6)ccn45)ncn3)cc2)cn1 [A58, 6-[7-(cyclopropylmethoxy)imidazo[1,2-a]pyridin-3-yl]-N-{[4-(1-methyl-1H-pyrazol-4-yl)phenyl]methyl}pyrimidin-4-amine]
22 | 11 nM | 270 nM | Cn1cc(-c2ccc(CNc3cc(-c4cnc5cc(OC6CCOC6)ccn45)ncn3)cc2)cn1 (stereo not shown) [A57, [4-(1-methyl-1H-pyrazol-4-yl)-benzyl]-{6-[7-(tetrahydro-furan-3-yloxy)-imidazo[1,2-a]pyridin-3-yl]-pyrimidin-4-yl}-amine]
23 | 11 nM | 82 nM | CN(C)CCOc1ccn2c(-c3cc(NCc4ccc(-c5cnn(C)c5)cc4)ncn3)cnc2c1 [A59, 6-{7-[2-(dimethylamino)ethoxy]imidazo[1,2-a]pyridin-3-yl}-N-{[4-(1-methyl-1H-pyrazol-4-yl)phenyl]methyl}pyrimidin-4-amine]
24 | 6.3 nM | 340 nM | COc1ccn2c(-c3cc(NCc4ccc(-c5ncc(C)o5)cc4)ncn3)cnc2c1 [A53, [6-(7-methoxy-imidazo[1,2-a]pyridin-3-yl)-pyrimidin-4-yl]-[4-(5-methyl-oxazol-2-yl)-benzyl]-amine]
25 | 5.7 nM | 150 nM | COc1ccn2c(-c3cc(NCc4ccc(-c5cc(C)no5)cc4)ncn3)cnc2c1 [A52, [6-(7-methoxy-imidazo[1,2-a]pyridin-3-yl)-pyrimidin-4-yl]-[4-(3-methyl-isoxazol-5-yl)-benzyl]-amine]
26 | 5.7 nM | 63 nM | c1cn(-c2ccc(CNc3cc(-c4cnc5cc(OCCN6CCOCC6)ccn45)ncn3)cc2)nn1 [A68, {6-[7-(2-morpholin-4-yl-ethoxy)-imidazo[1,2-a]pyridin-3-yl]-pyrimidin-4-yl}-(4-[1,2,3]triazol-1-yl-benzyl)-amine]
